Results as given in paper PMC9317966, “Structure-function analysis of the AMPK activator SC4 and identification of a potent pan AMPK activator” (Biochemical Journal, 2022).

How the values were obtained:
γ1AMPK complexes = assay: Radiolabel kinase assay, immobilised GST-tagged γ1AMPK (stated across γ1 complexes); assay type: biochemical, human
Description: We directly compared in vitro potencies of pan activators by performing radiolabel kinase assays with γ1AMPK complexes. Initially, we used GST-tagged γ1AMPK expressed in HEK293T/17 cells and immobilised on glutathione-Sepharose (Figure 2 and Table 2). […] These assays used AMPK purified from Sf9 insect cells or E. coli that was pre-treated with CaMKK2. […] However, relative to immobilised GST-α2β1γ1 from HEK293T/17 cells, His-tagged and myristoylated α2β1γ1 AMPK (expressed in E. coli, CaMKK2-treated and assayed in solution) was at least 10-fold more sensitive to activation by both MK-8722 and MSG011 (Supplementary Figure S3B), indicating the GST-affinity tag or CaMKK2 treatment may exert some influence on sensitivity to these activators.
(§1) Adherent HEK293T/17 cells at ∼50% confluency were triply transfected with full-length AMPK α1 or α2 (NH2-terminal GST fusion, pDEST27 vector), β1 or β2 (COOH-terminal FLAG fusion, pcDNA3.1 vector), and γ1, γ2 or γ3 (NH2-terminal HA fusion, pMT2 vector) in the presence of FuGENE HD transfection reagent (Promega) as per the manufacturers protocol. Cells were harvested 48 hours post-transfection by first gently washing in ice cold phosphate buffered saline (PBS; Sigma–Aldrich), then scraping in ice cold lysis buffer (50 mM TRIS pH 7.5, 150 mM NaCl, 10% (v/v) glycerol, 50 mM NaF, 5 mM sodium pyrophosphate, 1% (v/v) Triton X-100, cOmplete protease inhibitor cocktail). Lysates were clarified by centrifugation (16 000g, 3 min, 4°C), flash frozen in liquid N2 and stored at −80°C until analysis. For radioactive kinase assays, AMPK was immobilised on glutathione Sepharose 4B resin (GE Healthcare) by incubation with lysates for 1.5 h at 4°C. Following centrifugation (1000g, 3 min, 4°C), the resin was washed twice in purification buffer (50 mM HEPES pH 7.4, 150 mM NaCl, 10% (v/v) glycerol, 0.02% (v/v) Tween-20), once in 50 mM HEPES pH 7.4 with 0.02% (v/v) Tween-20, then resuspended to a 50% slurry with 50 mM HEPES pH 7.4 and 10 µl added to the activity assays. For in solution kinase assays, α1β1γ1 AMPK was eluted from glutathione-Sepharose by incubating with purification buffer supplemented with 40 mM reduced glutathione (Sigma–Aldrich).
AMPK activity was determined by phosphorylation of the SAMS peptide (Purar Chemicals, sequence: NH2-HMRSAMSGLHLVKRR-COOH) in a 25 µl reaction volume containing 100 µM SAMS peptide, 5 mM MgCl2, 200 µM ATP, [γ-^32P]-ATP (PerkinElmer) and assay buffer (50 mM HEPES pH 7.4, 1 mM DTT and 0.02% (v/v) Tween-20) and purified AMPK. […] Ultima Gold liquid scintillation fluid (5 ml; PerkinElmer) was added to vials containing dried phosphocellulose papers, and the level of ^32P-transfer to the SAMS peptide was determined using a Tri-Carb 2900TR liquid scintillation counter (PerkinElmer).

human GST-AMPK α1β1γ2 = molecular target: T1, human GST-AMPK α1β1γ2 (Homo sapiens, UniProt Q13131+Q9Y478); assay: Radiolabel SAMS kinase assay, immobilised GST-AMPK; assay type: biochemical; settings: 1 µM compound
T1 construct: triply transfected with full-length AMPK α1 or α2 (NH2-terminal GST fusion, pDEST27 vector); full-length AMPK α1 or α2 (NH2-terminal GST fusion, pDEST27 vector), β1 or β2 (COOH-terminal FLAG fusion, pcDNA3.1 vector); FLAG (C); made in house; host or cells: HEK293T/17 cells, transient triple transfection
T1 sequence (Q13131 whole entry, the tested form may be a part): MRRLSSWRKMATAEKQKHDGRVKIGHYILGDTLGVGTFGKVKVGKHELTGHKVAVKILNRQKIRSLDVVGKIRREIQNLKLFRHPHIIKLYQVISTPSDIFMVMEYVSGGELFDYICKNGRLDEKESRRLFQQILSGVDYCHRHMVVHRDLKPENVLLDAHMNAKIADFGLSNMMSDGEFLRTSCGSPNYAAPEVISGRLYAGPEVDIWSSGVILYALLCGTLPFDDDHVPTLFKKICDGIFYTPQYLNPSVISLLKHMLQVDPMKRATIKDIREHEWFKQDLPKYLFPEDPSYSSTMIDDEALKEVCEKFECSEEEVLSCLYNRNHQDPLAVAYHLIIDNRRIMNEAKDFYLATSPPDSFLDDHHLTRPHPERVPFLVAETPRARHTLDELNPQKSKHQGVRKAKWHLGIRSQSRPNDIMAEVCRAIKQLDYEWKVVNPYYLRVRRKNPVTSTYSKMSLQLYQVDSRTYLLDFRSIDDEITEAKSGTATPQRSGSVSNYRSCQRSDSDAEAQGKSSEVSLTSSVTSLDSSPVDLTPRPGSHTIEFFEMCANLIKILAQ
T1 sequence (Q9Y478 whole entry, the tested form may be a part): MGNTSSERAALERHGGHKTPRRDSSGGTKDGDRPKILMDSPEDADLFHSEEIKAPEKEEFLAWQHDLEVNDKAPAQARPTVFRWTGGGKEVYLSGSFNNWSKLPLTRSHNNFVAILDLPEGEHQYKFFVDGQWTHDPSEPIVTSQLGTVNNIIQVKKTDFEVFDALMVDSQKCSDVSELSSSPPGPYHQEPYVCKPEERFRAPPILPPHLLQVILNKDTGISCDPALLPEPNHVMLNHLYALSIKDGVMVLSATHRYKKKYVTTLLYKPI
T1 sequence (Q9UGJ0 whole entry partner, the tested form may be a part): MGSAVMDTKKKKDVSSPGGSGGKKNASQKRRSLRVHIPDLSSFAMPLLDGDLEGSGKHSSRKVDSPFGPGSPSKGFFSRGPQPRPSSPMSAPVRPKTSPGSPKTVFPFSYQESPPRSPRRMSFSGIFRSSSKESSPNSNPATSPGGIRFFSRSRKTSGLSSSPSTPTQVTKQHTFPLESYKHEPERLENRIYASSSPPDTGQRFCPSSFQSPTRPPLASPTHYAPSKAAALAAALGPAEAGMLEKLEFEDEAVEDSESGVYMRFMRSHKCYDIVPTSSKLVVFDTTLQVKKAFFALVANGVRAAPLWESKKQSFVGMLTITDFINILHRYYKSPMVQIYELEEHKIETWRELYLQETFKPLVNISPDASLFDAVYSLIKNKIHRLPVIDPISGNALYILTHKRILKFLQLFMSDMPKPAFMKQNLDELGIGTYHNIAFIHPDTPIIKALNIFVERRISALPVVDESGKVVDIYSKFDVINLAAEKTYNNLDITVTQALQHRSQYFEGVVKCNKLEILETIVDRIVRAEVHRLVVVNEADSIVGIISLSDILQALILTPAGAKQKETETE
Description: (§2) We generated a series of compounds to investigate whether modification of the SC4 2-hydroxybiphenyl LHS fragment affects isoform selectivity, some of which (MSG008-MSG011) are presented in Table 1. We also synthesised compound MSG012 (example I-3-54 [32]), which was reported to activate α2β2γ1 with ∼100-fold greater potency compared with α1β1γ1. MSG012 differs from SC4 by substitution of the 2-hydroxyphenyl LHS fragment with 3-cyclohexen-4-yl-1-carboxylic acid, and 2-methylbenzoic acid RHS fragment with 1-hydroxy-N,N-dimethylcyclohexan-4-yl-1-carboxamide. Our initial screen involved measuring the activity of recombinant human GST-AMPK complexes expressed in HEK293T/17 cells and immobilised on glutathione-Sepharose (Supplementary Figure S1). Enzyme activity was measured by radiolabelling the synthetic SAMS peptide substrate in the absence or presence of 1 µM compound. Consistent with our previous characterisation, SC4 activated α1β1γ1, α2β1γ1 and α2β2γ1 >2.3-fold, and weakly activated α1β2γ1 1.3-fold (Figure 1A). […] The γ isoform had little influence on AMPK activation by MSG011 as most γ2 and γ3 complexes were activated >2.2-fold at 1 µM, with α1β2γ2 being the only exception (1.6-fold activation). […] Accordingly, MSG010, MSG011 and MSG012 can be classified as pan AMPK activators.
as §1
(§3) AMPK activity was determined by phosphorylation of the SAMS peptide (Purar Chemicals, sequence: NH2-HMRSAMSGLHLVKRR-COOH) in a 25 µl reaction volume containing 100 µM SAMS peptide, 5 mM MgCl2, 200 µM ATP, [γ-^32P]-ATP (PerkinElmer) and assay buffer (50 mM HEPES pH 7.4, 1 mM DTT and 0.02% (v/v) Tween-20) and purified AMPK. Phosphotransferase activity was conducted at 30°C for 10 min and reactions were quenched by spotting 15 µl onto phosphocellulose ion-exchange chromatography paper (made in-house), followed by repeated washes in 1% H3PO4 (Merck Millipore). Ultima Gold liquid scintillation fluid (5 ml; PerkinElmer) was added to vials containing dried phosphocellulose papers, and the level of ^32P-transfer to the SAMS peptide was determined using a Tri-Carb 2900TR liquid scintillation counter (PerkinElmer).

human GST-AMPK α2β1γ3 = molecular target: T2, human GST-AMPK α2β1γ3 (Homo sapiens, UniProt P54646+Q9Y478); assay: Radiolabel SAMS kinase assay, immobilised GST-AMPK; assay type: biochemical; settings: 1 µM compound
T2 construct: triply transfected with full-length AMPK α1 or α2 (NH2-terminal GST fusion, pDEST27 vector); full-length AMPK α1 or α2 (NH2-terminal GST fusion, pDEST27 vector), β1 or β2 (COOH-terminal FLAG fusion, pcDNA3.1 vector); FLAG (C); made in house; host or cells: HEK293T/17 cells, transient triple transfection
T2 sequence (P54646 whole entry, the tested form may be a part): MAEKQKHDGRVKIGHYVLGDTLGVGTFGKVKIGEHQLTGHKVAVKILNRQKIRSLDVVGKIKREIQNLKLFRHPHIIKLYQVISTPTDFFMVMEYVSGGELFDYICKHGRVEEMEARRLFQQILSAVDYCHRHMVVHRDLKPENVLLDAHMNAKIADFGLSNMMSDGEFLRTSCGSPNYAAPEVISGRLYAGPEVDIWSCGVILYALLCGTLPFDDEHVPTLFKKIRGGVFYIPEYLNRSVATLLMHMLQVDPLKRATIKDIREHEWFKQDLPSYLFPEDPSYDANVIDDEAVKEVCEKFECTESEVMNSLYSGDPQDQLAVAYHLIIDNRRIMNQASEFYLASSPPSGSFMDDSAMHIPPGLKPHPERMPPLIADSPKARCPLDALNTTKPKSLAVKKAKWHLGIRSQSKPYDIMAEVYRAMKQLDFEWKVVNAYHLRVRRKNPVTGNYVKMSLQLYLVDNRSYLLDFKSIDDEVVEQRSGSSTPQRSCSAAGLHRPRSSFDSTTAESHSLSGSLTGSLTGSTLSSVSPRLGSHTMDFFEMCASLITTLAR
T2 sequence (Q9Y478 whole entry, the tested form may be a part): as the sequence (Q9Y478 whole entry, the tested form may be a part) above
T2 sequence (Q9UGI9 whole entry partner, the tested form may be a part): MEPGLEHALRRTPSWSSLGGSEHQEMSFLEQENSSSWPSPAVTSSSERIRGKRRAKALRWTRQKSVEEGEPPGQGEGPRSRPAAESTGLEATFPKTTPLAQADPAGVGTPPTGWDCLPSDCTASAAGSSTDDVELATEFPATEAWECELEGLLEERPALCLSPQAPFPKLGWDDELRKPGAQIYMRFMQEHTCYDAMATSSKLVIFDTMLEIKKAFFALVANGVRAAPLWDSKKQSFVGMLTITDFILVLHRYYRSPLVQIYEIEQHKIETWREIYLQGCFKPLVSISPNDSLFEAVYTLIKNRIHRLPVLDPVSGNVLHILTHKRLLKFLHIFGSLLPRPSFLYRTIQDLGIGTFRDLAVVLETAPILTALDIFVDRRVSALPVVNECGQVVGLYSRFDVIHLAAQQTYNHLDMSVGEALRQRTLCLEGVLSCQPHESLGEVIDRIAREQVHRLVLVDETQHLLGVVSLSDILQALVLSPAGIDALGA
Description: as §2, §1, §3

human GST-AMPK α1β1γ3 = molecular target: T3, human GST-AMPK α1β1γ3 (Homo sapiens, UniProt Q13131+Q9Y478); assay: Radiolabel SAMS kinase assay, immobilised GST-AMPK; assay type: biochemical; settings: 1 µM compound
T3 construct: triply transfected with full-length AMPK α1 or α2 (NH2-terminal GST fusion, pDEST27 vector); full-length AMPK α1 or α2 (NH2-terminal GST fusion, pDEST27 vector), β1 or β2 (COOH-terminal FLAG fusion, pcDNA3.1 vector); FLAG (C); made in house; host or cells: HEK293T/17 cells, transient triple transfection
T3 sequence (Q13131 whole entry, the tested form may be a part): as the sequence (Q13131 whole entry, the tested form may be a part) above
T3 sequence (Q9Y478 whole entry, the tested form may be a part): as the sequence (Q9Y478 whole entry, the tested form may be a part) above
T3 sequence (Q9UGI9 whole entry partner, the tested form may be a part): as the sequence (Q9UGI9 whole entry partner, the tested form may be a part) above
Description: as §2, §1, §3

human GST-AMPK α1β2γ2 = molecular target: T4, human GST-AMPK α1β2γ2 (Homo sapiens, UniProt O43741+Q13131); assay: Radiolabel SAMS kinase assay, immobilised GST-AMPK; assay type: biochemical; settings: 1 µM compound
T4 construct: triply transfected with full-length AMPK α1 or α2 (NH2-terminal GST fusion, pDEST27 vector); full-length AMPK α1 or α2 (NH2-terminal GST fusion, pDEST27 vector), β1 or β2 (COOH-terminal FLAG fusion, pcDNA3.1 vector); FLAG (C); made in house; host or cells: HEK293T/17 cells, transient triple transfection
T4 sequence (Q13131 whole entry, the tested form may be a part): as the sequence (Q13131 whole entry, the tested form may be a part) above
T4 sequence (O43741 whole entry, the tested form may be a part): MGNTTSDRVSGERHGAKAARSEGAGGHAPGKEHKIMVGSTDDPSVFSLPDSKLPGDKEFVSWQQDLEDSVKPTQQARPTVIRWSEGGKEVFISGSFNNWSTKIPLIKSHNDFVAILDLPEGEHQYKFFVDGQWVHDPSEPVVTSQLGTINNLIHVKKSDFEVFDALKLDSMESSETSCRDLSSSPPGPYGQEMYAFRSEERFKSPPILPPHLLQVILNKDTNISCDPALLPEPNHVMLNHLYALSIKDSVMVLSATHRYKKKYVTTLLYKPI
T4 sequence (Q9UGJ0 whole entry partner, the tested form may be a part): as the sequence (Q9UGJ0 whole entry partner, the tested form may be a part) above
Description: as §2, §1, §3

human GST-AMPK α2β2γ2 = molecular target: T5, human GST-AMPK α2β2γ2 (Homo sapiens, UniProt O43741+P54646); assay: Radiolabel SAMS kinase assay, immobilised GST-AMPK; assay type: biochemical; settings: 1 µM compound
T5 construct: triply transfected with full-length AMPK α1 or α2 (NH2-terminal GST fusion, pDEST27 vector); full-length AMPK α1 or α2 (NH2-terminal GST fusion, pDEST27 vector), β1 or β2 (COOH-terminal FLAG fusion, pcDNA3.1 vector); FLAG (C); made in house; host or cells: HEK293T/17 cells, transient triple transfection
T5 sequence (P54646 whole entry, the tested form may be a part): as the sequence (P54646 whole entry, the tested form may be a part) above
T5 sequence (O43741 whole entry, the tested form may be a part): as the sequence (O43741 whole entry, the tested form may be a part) above
T5 sequence (Q9UGJ0 whole entry partner, the tested form may be a part): as the sequence (Q9UGJ0 whole entry partner, the tested form may be a part) above
Description: as §2, §1, §3

human GST-AMPK α2β1γ2 = molecular target: T6, human GST-AMPK α2β1γ2 (Homo sapiens, UniProt P54646+Q9Y478); assay: Radiolabel SAMS kinase assay, immobilised GST-AMPK; assay type: biochemical; settings: 1 µM compound
T6 construct: triply transfected with full-length AMPK α1 or α2 (NH2-terminal GST fusion, pDEST27 vector); full-length AMPK α1 or α2 (NH2-terminal GST fusion, pDEST27 vector), β1 or β2 (COOH-terminal FLAG fusion, pcDNA3.1 vector); FLAG (C); made in house; host or cells: HEK293T/17 cells, transient triple transfection
T6 sequence (P54646 whole entry, the tested form may be a part): as the sequence (P54646 whole entry, the tested form may be a part) above
T6 sequence (Q9Y478 whole entry, the tested form may be a part): as the sequence (Q9Y478 whole entry, the tested form may be a part) above
T6 sequence (Q9UGJ0 whole entry partner, the tested form may be a part): as the sequence (Q9UGJ0 whole entry partner, the tested form may be a part) above
Description: as §2, §1, §3

EC50 fold higher than previously determined by high-throughput fluorescence-based assays in solution (γ1AMPK complexes; compared with refs 17, 18)	EC50 (γ1AMPK complexes; immobilised GST-γ1AMPK, read-out: EC50 values for γ1AMPK activation)	fold AMPK activation relative to vehicle (human GST-AMPK α1β1γ2)	fold AMPK activation relative to vehicle (human GST-AMPK α2β1γ3)	fold AMPK activation relative to vehicle (human GST-AMPK α1β1γ3)	fold AMPK activation relative to vehicle (human GST-AMPK α1β2γ2)	fold AMPK activation relative to vehicle (human GST-AMPK α2β2γ2)	fold AMPK activation relative to vehicle (human GST-AMPK α2β1γ2)	SMILES
100–1000 fold	1.2 to 5.6 µM							O[C@@H]1CO[C@H]2[C@@H]1OC[C@H]2Oc1nc2nc(-c3ccc(-c4ccccc4)cc3)c(Cl)cc2[nH]1 [MK-8722, reference compound]
		> 2.2 fold	> 2.2 fold	> 2.2 fold	1.6 fold	> 2.2 fold	> 2.2 fold	CC(=O)NC1CC=C(c2ccc(-c3nc4nc(Oc5ccc(C)c(C(=O)O)c5)[nH]c4cc3Cl)cc2)CC1 (centres unmarked) [MSG011, 5-((5-(4′-Acetamido-2′,3′,4′,5′-tetrahydro-[1,1′-biphenyl]-4-yl)-6-chloro-1H-imidazo[4,5-b]pyridin-2-yl)oxy)-2-methylbenzoic acid]
